{"source": "patent EP3656762A1", "about": "“COMPOUNDS FOR THE TREATMENT OF NF-KB-RELATED DISEASES OR DISORDERS” (Instituto Biomar S.A., priority 2018, dated 2020)", "tested_on": "Experimental Autoimmune Encephalomyelitis (EAE)", "conditions": "MOG35-55 induced EAE; i.p. daily from day 0; Compound 1 3 mg/kg, Cyclosporine A 10 mg/kg; score 0-8; mean ± SEM", "data": [{"substance": "Cyclosporine A", "values": [{"measurement": "MaxES (Maximum EAE score)", "result": "3.0±0.1"}]}]}
